In patent US10179794B2, “Thieno[3,2-d]pyrimidine, furo[3,2-d]pyrimidine, and pyrrolo[3,2-D]pyrimidines useful for treating respiratory syncitial virus infections” (Gilead Sciences, Inc., priority 2014, dated 2019) one finds CC50 and EC50 data, which are given here for 1 molecule.

In general, CC50 refers to the concentration that lowers cell viability or growth by half. Read a high CC50 as lower toxicity to the cells. What is called EC50 is the midpoint of the concentration-response curve.

One series deals with HEp-2 cells. Description: Cytotoxicity assay in HEp-2 cells. The format is cell-based. As to conditions: uninfected HEp-2 cells, 4 days, CellTiter Glo. How it is done:
Cytotoxicity of tested compounds is determined in uninfected HEp-2 cells in parallel with the antiviral activity using the cell viability reagent in a similar fashion as described before for other cell types (Cihlar et al., Antimicrob Agents Chemother. 2008,52(2):655-65.). The same protocol as for the determination of antiviral activity is used for the measurement of compound cytotoxicity except that the cells are not infected with RSV. Instead, an uninfected cell mixture at the same density is added at 20 ul/well to plates containing prediluted compounds, also at 100 nl/sample. Assay plates are then incubated for 4 days followed by a cell viability test using the same CellTiter Glo reagent addition and measurement of luminescent readouts. Untreated cell and cells treated at 2 uM puromycin (Sigma, St. Louis, Mo.) serve as 100% and 0% cell viability control, respectively. The percent of cell viability is calculated for each tested compound concentration relative to the 0% and 100% controls and the CC50 value is determined by non-linear regression as a compound concentration reducing the cell viability by 50%.
A general note: Cellular ATP, detected with luciferase, serves as a proxy for viable cell number.

The next series deals with RSV strain A2. Description: Anti-RSV activity, infectious cytopathic cell protection assay in HEp-2 cells. The format is cell-based, Respiratory Syncytial Virus (RSV). The following applies: RSV A2-induced cytopathic effect in HEp-2 cells, 4 days, Cell TiterGlo; read-out: EC50. How it is done: Antiviral activity against RSV is determined using an infectious cytopathic cell protection assay in HEp-2 cells. In this assay, compounds inhibiting viral infection and/or replication produce a cytoprotective effect against the virus-induced cell killing that can be quantified using a cell viability reagent. The techniques used here are novel adaptations of methods described in published literature (Chapman et al., Antimicrob Agents Chemother. 2007, 51 (9):3346-53.)
HEp-2 cells are obtained from ATCC (Manassas, Va.) and maintained in MEM media supplemented with 10% fetal bovine serum and penicillin/streptomycin. Cells are passaged twice a week and kept at subconfluent stage. Commercial stock of RSV strain A2 (Advanced Biotechnologies, Columbia, Md.) is titered before compound testing to determine the appropriate dilution of the virus stock that generates desirable cytopathic effect in HEp-2 cells.
For antiviral tests, HEp-2 cells are grown in large cell culture flasks to near confluency but not fully so. The compounds to be tested are prediluted in DMSO in 384-well compound dilution plates, either in an 8 or 40 sample per plate standardized dose response format. 3-fold serial dilution increments of each test compound are prepared in the plates and test samples are transferred via acoustic transfer apparatus (Echo, Labcyte) at 100 nl per well into cell culture assay 384-well plates. Each compound dilution is transferred in single or quadruplicate samples into dry assay plates, which are stored until assay is ready to go. The positive and negative controls are laid out in opposite on ends of the plate in vertical blocks (1 column).
Subsequently, an infectious mixture is prepared using an appropriate dilution of virus stock previously determined by titration with cells at a density of 50,000/ml and 20 uL/well is added to test plates w/compounds via automation (uFlow, Biotek). Each plate includes negative and positive controls (16 replicates each) to create 0% and 100% virus inhibition standards, respectively. Following the infection with RSV, testing plates are incubated for 4 days in a 37° C. cell culture incubator. After the incubation, a cell viability reagent, Cell TiterGlo (Promega, Madison, Wis.) is added to the assay plates, which are incubated briefly, and a luminescent readout is measured (Envision, Perkin Elmer) in all the assay plates. The RSV-induced cytopathic effect, percentage inhibition, is determined from the levels of remaining cell viability. These numbers are calculated for each tested concentration relative to the 0% and 100% inhibition controls, and the EC50 value for each compound is determined by non-linear regression as a concentration inhibiting the RSV-induced cytopathic effect by 50%. Various potent anti-RSV tool compounds are used as positive controls for antiviral activity.
(Cytopathic effects are the visible damage that an infection or toxin causes in cultured cells.)

The subject of another series is MT-4 cells. Description: Cytotoxicity assay in MT-4 cells. The format is cell-based. The following applies: 5 days, Cell-Titer Glo. How it is done: The MT-4 cell line was obtained from the NIH AIDS Research and Reference Reagent Program (Germantown, Md.) and cultured in RPMI-1640 medium (Irvine Scientific, Santa Ana, Calif., Cat #9160) supplemented with 10% FBS, 100 units/mL penicillin, 100 units/mL streptomycin, and 2 mM L-Glutamine. The MT-4 cells were passaged twice per week to maintain cell densities below 0.6×10^6 cells/mL. Complete RPMI-1640 media containing 100× concentrations of 3-fold serially diluted compound, ranging from 26 nM to 530 μM, were stamped in quadruplicate into black 384-well plates. After compound addition, 2×10^3 MT-4 cells were added to each well using a MicroFlo liquid dispenser (BioTek, Winooski, Vt.) and the cells were cultured for 5 days at 37° C. in a 5% CO2 incubator. Following the incubation the cells were allowed to equilibrate to 25° C. and cell viability was determined by adding 25 μL of Cell-Titer Glo viability reagent. The mixture was incubated for 10 minutes at 25° C., and the luminescence signal was quantified on a Victor Luminescence plate reader. The CC50 value is defined as the concentration of compound that reduces cell viability by 50% as determined by the Cell-Titer Glo signal. The data were analyzed using Pipeline Pilot Plate Data Analytics Collection software (Version 7.0, Accelrys, San Diego, Calif.). CC50 values were calculated from a non-linear regression analysis using a 4-parameter sigmoidal dose-response equation: Y=Bottom+(Top-Bottom)/(1+10^[(LogCC50-X)*HillSlope]) where the Top and Bottom were fixed at 100% and 0% cell viability, respectively. CC50 values were calculated as the average± standard deviation of 3 independent experiments.

`N#C[C@]1(CO)O[C@@H](c2csc3c(N)ncnc23)[C@H](F)[C@@H]1O` [Example 2, (2R,3R,4R,5S)-5-(4-aminothieno[3,2-D]pyrimidin-7-yl)-4-fluoro-3-hydroxy-2-(hydroxymelthyl)tetrahydrofuran-2-carbonitrile]: the CC50 in the series on HEp-2 cells is greater than 100 µM; in the series with MT-4 cells, greater than 114 µM. The EC50 in the series on RSV strain A2 turned out to be 6.5 µM.
